# Results published in patent US20090023186A1, “USE OF VALPROIC ACID FOR ENHANCING PRODUCTION OF RECOMBINANT PROTEINS IN MAMMALIAN CELLS” (EXCELLGENE SA, priority 2007, published 2009).
# Test system: HEK293E cells
# Experiment: Combination with IDMTs, IgG batch yield by ELISA (Example 6)
# Format: cell-based, Human
# Settings: VPA 4 mmol/l; no addition = 100%; day 5 after transfection
# Protocol: 10 million suspension-adapted HEK293E cells were resuspended in 0.5 ml of Ex-Cell 293 HEK 293 serum-free medium with 4 mmol/l L-glutamine (Cat. No. 14571C-[…]; Lot No. 6A0093; SAFC Biosciences, Lenexa, Kans., USA, “Ex-Cell” medium; note: “Ex-Cell” medium-as used herein-refers to a medium comprising 4 mmol/l L-glutamine) in a 50-ml filter tube each (TPP AG, Trasadingen, Switzerland; Cat. No. 87050, Lot 20050174). In a separate set, 10 million suspension-adapted CHO DG44 cells were resuspended in 0.5 ml of ProCHO5 serum-free medium with 4 mmol/[…] hypoxanthine and 0.194 g/l thymidine (BioWhittaker (Lonza), Belgium; Cat. No. BE12-[…]; Lot No. 7MB0040; “ProCHO5” medium; note: “ProCHO5” medium-as used herein-refers to a medium comprising 4 mmol/[…] hypoxanthine and 0.194 g/l thymidine) in a 50-ml filter tube each (TPP AG, Trasadingen, Switzerland; Cat. No. 87050, Lot 20050174). Then 12.5 μg plasmid DNA at a concentration of 1 μg/μl was added in each tube with the following composition 50% (6.25 μg) p-LC (SEQ ID NO: 1) 50% (6.25 μg) p-HC (SEQ ID NO: 3). Plasmid p-LC comprises the genetic information for the production of the light chain of an IgG antibody, plasmid p-HC comprises the genetic information for the production of the heavy chain of an IgG antibody. The particular vector constructs used in the present invention can also be obtained from the inventors. The inventors can be contacted via e-mail at […]. […] In short, Goat anti-human kappa light chain IgG (Biosource) was used for coating the ELISA-plates, and with AP-conjugated goat anti-human gamma chain IgG (Biosource) the synthesized IgG1 was detected. […] Absorption was measured at 405 nm against 490 nm using a microplate reader (SPECTRAmaxTM340; Molecular Devices, Palo Alto, Calif., USA).
compound,measurement,value
"CCCC(CCC)C(=O)O [VPA, valproic acid]",Fold increase in batch yield over control,520% ± 30%
